Read-outs that look alike come from different tables or passages of the source. One block for each molecule: values may come before it.
Experiments:
[1] = tested on: caspase-3 activity in CML cell lines and primary samples; assay: Caspase-3 activity; assay type: cell-based; settings: pulse treatment 1 h at IC50 doses
KCL22S cells = assay: Proliferation of KCL22S cells with or without LMP7 siRNA; assay type: cell-based; settings: Homo sapiens, 24 h, read-out: IC50, proliferation, control KCL22S, continuous exposure for 24 h
ABI 1/2 = assay: Western blot of ABI 1/2 levels after carfilzomib; assay type: cell-based; settings: carfilzomib at IC50 levels; cell lines and primary CD34+38- enriched cells
LAMA84S cells = assay: Proliferation of LAMA84S cells with or without LMP7 siRNA; assay type: cell-based; settings: Homo sapiens, 24 h, read-out: IC50, proliferation, control LAMA84S, continuous exposure for 24 h
K562 cells = assay: Proliferation of K562 cells with or without IFN-γ; assay type: cell-based; settings: Homo sapiens
NBM CD34+38- cells = assay: Viability of normal bone marrow CD34+38- cells; assay type: cell-based, human; settings: 50 nM for 1 h, then drug-free medium 24 h
CML CD34+38- cells = assay: Viability of CML CD34+38- cells; assay type: cell-based, human; settings: 50 nM for 1 h, then drug-free medium 24 h
CML cell lines = assay: Cell viability of CML cell lines; assay type: cell-based; settings: read-out: IC50, viability
CML CD34+ cells = assay: LTC-IC assay, CML CD34+ cells; assay type: cell-based, human; settings: pulsed 1 h with 50 nM
[2] = tested on: STAT5 or PI3K signaling pathways; assay: Western blot of STAT5 and PI3K signaling after carfilzomib; assay type: cell-based; settings: carfilzomib at IC50 doses, 1 h pulse, fresh medium 24 h
[3] = tested on: A549 lung carcinoma cell line; assay: Proliferation of A549 cells with or without IFN-γ; assay type: cell-based; settings: Homo sapiens
normal CD34+ cells (NBM) = assay: LTC-IC assay, normal CD34+ cells; assay type: cell-based, human; settings: pulsed 1 h with 50 nM
[4] = tested on: LMP7 expression in A549 cells; assay: Induction of LMP7 expression by IFN-γ in A549 cells; assay type: cell-based; settings: 100 U/ml IFN-γ for 72 h
[5] = tested on: LMP7 expression in K562 cells; assay: Induction of LMP7 expression by IFN-γ in K562 cells; assay type: cell-based; settings: 100 U/ml IFN-γ for 72 h

- IC50 (K562 cells; K562, 24 h, read-out: IC50, proliferation): 608 nM
- IC50 (K562 cells; K562, read-out: IC50, proliferation): 179 nM
- IC50 ([3]; A549, 24 h, read-out: IC50, proliferation): 92 nM
- IC50 ([3]; A549, read-out: IC50, proliferation): 10 nM
Molecule: CC(C)C[C@H](NC(=O)[C@H](CCc1ccccc1)NC(=O)CN1CCOCC1)C(=O)N[C@@H](Cc1ccccc1)C(=O)N[C@@H](CC(C)C)C(=O)[C@@]1(C)CO1 [carfilzomib]
- caspase-3 activity [1]: increase in caspase-3 activity
- IC50 (KCL22S cells): 5 nM
- increased expression of ABI 1/2 (ABI 1/2): 2.2–6.8 fold
- IC50 (LAMA84S cells): 7 nM
- viability reduced by (NBM CD34+38- cells): 19±2%
- viability reduced by (CML CD34+38- cells): 39±1%
- IC50 (CML cell lines): 20 to 79 nM
- colony formation reduced by (CML CD34+ cells): 58±11%
- effect on STAT5 or PI3K signaling pathways [2]: no effect
- colony formation reduced by (normal CD34+ cells (NBM)): 44±7%

B1: IFN-γ: interferon-γ, used at 100 U/ml for 72 h to induce immunoproteasome expression (protein, UniProt P01579 24-161, looked up)
Interferon gamma: QDPYVKEAENLKKYFNAGHSDVADNGTLFLGILKNWKEESDRKIMQSQIVSFYFKLFKNFKDDQSIQKSVETIKEDMNVKFFNSNKKKRDDFEKLTNYSVTDLNVQRKAIHELIQVMAELSPAAKTGKRKRSQMLFRG
- increase in the expression of LMP7 [4]: 10 fold
- increase in the expression of LMP7 [5]: fourfold

Reference: publication PMC3940921 (Oncogenesis, 2014)
